Test results as given in publication PMC4764579, “Structural insights into the mechanism of activation of the TRPV1 channel by a membrane-bound tarantula toxin” (eLife, 2016).
Positions of bridges follow the written chain, without caps; N, C: chain ends. Residues, ends and D or L forms follow the SMILES beside them.

Test: Membrane partitioning of toxins into lipid vesicles measured using Trp fluorescence
Format: physicochemical
Settings: LUVs 1:1 POPC:POPG
Text: Motivated by the amphipathic character evident in the structure of DkTx, together with the placement of the toxin at the protein-lipid interface when bound to TRPV1, we investigated the interaction of DkTx and each of its two lobes with lipid membranes. For these experiments, we took advantage of the presence of a single conserved and solvent accessible Trp residue in loop 2 of both K1 and K2 (Figure 1C,D; W11 and W53), and used Trp fluorescence to monitor the partitioning of the toxin from the aqueous solution into the membrane environment ([Gupta et al., 2015]; [Ladokhin et al., 2000]; [Milescu et al., 2007]). When aqueous solutions of DkTx were excited at a wavelength of 280 nm, emission spectra with maxima at 353 nm were obtained (Figure 5A, left), as expected for Trp residues residing in such an environment. […] To quantify the extent of partitioning as a function of lipid concentration, we measured the relative fluorescence intensity in a blue-shifted region of the spectra (e.g. 320 nm) as a function of lipid concentration, and fit a partition function to the data to obtain a mole-fraction partition coefficient (Kx) of (2.3 ± 0.7) × 10^6, indicating an energetically favorable interaction of DkTx with lipid membranes (Figure 5A, right). This strong interaction of DkTx with membranes would facilitate binding of the toxin to the channel by increasing the local concentration of the toxin near the channel and by a reduction in the dimensionality of diffusion within the membrane ([Axelrod and Wang, 1994]).
Figure 5. Interaction of DkTx and toxin constructs with lipid membranes measured using Trp fluorescence. (A–E, left panel) Trp emission spectra of DkTx (A), K1 without linker (B), K2 (C), bivalent K1 (K1K1) (D) and bivalent K2 (K2K2) (E) in the absence (black) and presence (blue, 1.6 mM for DkTx, 2 mM for K1-ΔL and K1K1, and 3 mM for K2 and K2K2) of lipid vesicles (1:1 mix of POPC:POPG). (A–E, right panel) Relative fluorescence intensity at 320 nm (F/F0) as a function of available lipid concentrations (60% of total lipid concentration). Smooth curves correspond to partition functions with Kx = (2.3 ± 0.7) × 10^6 and F/F0^max = 2.65 ± 0.08 for DkTx, Kx = (3.9 ± 1.1) × 10^5 and F/F0^max = 2.63 ± 0.07 for K1-ΔL, Kx = (2.0 ± 0.3) × 10^4 and F/F0^max = 3.71 ± 0.40 for K2, Kx = (2.9 ± 0.3) × 10^6 and F/F0^max = 2.47 ± 0.03 for K1K1 and Kx = (8.1 ± 2) × 10^5 and F/F0^max = 2.77 ± 0.55 for K2K2. Error bars correspond to SEM (n = 3 or 4). Partition functions for K1-ΔL and K2 are shown as dotted lines for comparison in D and E, respectively. (F) Comparisons of mole-fraction partition coefficient (Kx) of toxins. 7G-DkTx denotes a construct of DkTx whose linker (PYVPVTT) is replaced with 7 Gly residues. Error bars correspond to SEM (n = 3 or 4). DOI: http://dx.doi.org/10.7554/eLife.11273.020 Figure 5—figure supplement 1. Interaction of K1-K2 chimeras with lipid membranes measured using Trp fluorescence. (A–E, left panel) Trp emission spectra of K1(D1N) (A), K1(K2L2) (B), K1(K2L3) (C), K1(K2L4) (D) and K1(K2CT) (E) in the absence (black) and presence (blue, 2 mM) of lipid vesicles (1:1 mix of POPC:POPG). (A–D, right panel) Relative fluorescence intensity at 320 nm (F/F0) as a function of available lipid concentrations (60% of total lipid concentration). Smooth curves correspond to partition functions with Kx = (1.76 ± 0.06) × 10^6 and F/F0^max = 3.79 ± 0.02 for K1(D1N), Kx = (4.77 ± 1.39) × 10^5 and F/F0^max = 1.31 ± 0.02 for K1(K2L2), Kx = (1.02 ± 0.04) × 10^4 and F/F0^max = 3.69 ± 0.02 for K1(K2L3), and Kx = (0.90 ± 0.04) × 10^6 and F/F0^max = 2.59 ± 0.02 for K1(K2L4). Error bar corresponds to SEM (n = 3 or 4). Smooth curve of K1-ΔL was shown as a dotted line for comparison throughout the figures. (F) Comparisons of mole-fraction partition coefficient (Kx) of toxins. Error bars correspond to SEM (n = 3 or 4). DOI: http://dx.doi.org/10.7554/eLife.11273.021 [drawing 10] […]

CC[C@H](C)[C@@H]1NC(=O)[C@H](Cc2ccccc2)NC(=O)[C@H](C)NC(=O)[C@H](CC(C)C)NC(=O)[C@@H]2CCCN2C(=O)[C@@H]2CSSC[C@@H]3NC(=O)[C@H](C(C)C)NC(=O)[C@H](CCC(=O)O)NC(=O)CNC(=O)[C@H](CCC(=O)O)NC(=O)[C@H](CCCCN)NC(=O)[C@H](C)NC(=O)[C@@H](NC(=O)[C@@H](N)CC(N)=O)CSSC[C@H](NC(=O)[C@H](CSSC[C@@H](C(=O)N[C@@H](CCC(=O)O)C(=O)N[C@@H](CCCCN)C(=O)N[C@@H](Cc4ccc(O)cc4)C(=O)N[C@@H](CCCNC(=N)N)C(=O)O)NC(=O)[C@H](Cc4ccc(O)cc4)NC(=O)[C@@H]4CCCN4C1=O)NC(=O)[C@H](CCCCN)NC(=O)[C@H](CO)NC(=O)CNC(=O)[C@H](Cc1c[nH]c4ccccc14)NC(=O)CNC3=O)C(=O)N[C@@H](Cc1c[nH]cn1)C(=O)NCC(=O)N[C@@H](CC(C)C)C(=O)N[C@@H](CC(=O)O)C(=O)N2 [K2] (H-NCAKEGEVCGWGSKCCHGLDCPLAFIPYCEKYR-OH; disulfide 2-16, 9-21, 15-29 (inferred); N-terminus and C-terminus assumed)
F/F0^max (relative fluorescence intensity at 320 nm when partitioning is saturated) (Trp fluorescence, 10 mM HEPES, 1 mM EDTA, pH 7.0, fit of partition function, ± SEM, n = 3 or 4, SEM): 3.71 ± 0.40
measured free energy of membrane partitioning (ΔG° = −RT lnKx) (from measured Kx): -5.8 kcal/mol
